# Laboratory results: patent EP2902035B1, “Cell-permeable peptide inhibitors of the JNK signal transduction pathway for use in the treatment of inflammatory eye diseases” (Xigen Inflammation Ltd., priority 2010, dated 2012)
# Key:
# [1] = tested on: phospho-p44/42 MAPK (Erk1/2); assay: Immunohistochemistry of p-Erk1/2 on ocular sections in EIU; type: in vivo, Lewis rats; conditions: 24h
# Method: A second set of experiment was designed to evaluate the anti-inflammatory effect of the JNK-inhibitor (poly-)peptide of SEQ ID NO: 11 at the cellular and tissue level as well as the biodistribution of this molecule 24 hours after administration. Rats were randomized into 11 experimental groups. 6 groups of rats with uveitis: untreated uveitic rats, rats injected intravenously with NaCl or the JNK-inhibitor (poly-)peptide of SEQ ID NO: 11 and rats injected intravitreously with the vehicle, the JNK-inhibitor (poly-)peptide of SEQ ID NO: 11 or dexamethasone. The 5 additional groups without uveitis were: untreated healthy rats, rats treated by NaCl IV or the JNK-inhibitor (poly-)peptide of SEQ ID NO: 11 IV and rats injected IVT with NaCl or the JNK-inhibitor (poly-)peptide of SEQ ID NO: 11. Three eyes from separate rats were collected per group and used for immunohistochemistry. Immunostaining of p-Erk1/2 was performed to evaluate the effect of the JNK-inhibitor (poly-)peptide of SEQ ID NO: 11 on the ERK pathway after IV or IVT administration. Sections were permeabilized as described above and incubated in blocking solution containing 0.1% Triton X-100 and 10% FCS (fetal calf serum) in PBS for 1 hour at room temperature. […]
# iNOS positive cells = assay: Immunohistochemistry of iNOS on eye sections in EIU; type: in vivo, Lewis rats; conditions: IV or IVT injection compared to control eyes, 24h
# Method: A second set of experiment was designed to evaluate the anti-inflammatory effect of the JNK-inhibitor (poly-)peptide of SEQ ID NO: 11 at the cellular and tissue level as well as the biodistribution of this molecule 24 hours after administration. Rats were randomized into 11 experimental groups. 6 groups of rats with uveitis: untreated uveitic rats, rats injected intravenously with NaCl or the JNK-inhibitor (poly-)peptide of SEQ ID NO: 11 and rats injected intravitreously with the vehicle, the JNK-inhibitor (poly-)peptide of SEQ ID NO: 11 or dexamethasone. The 5 additional groups without uveitis were: untreated healthy rats, rats treated by NaCl IV or the JNK-inhibitor (poly-)peptide of SEQ ID NO: 11 IV and rats injected IVT with NaCl or the JNK-inhibitor (poly-)peptide of SEQ ID NO: 11. Three eyes from separate rats were collected per group and used for immunohistochemistry. To characterize the cellular infiltrate, sections were double-stained with ED1 and iNOS. […] After staining nuclei with DAPI (Sigma-Aldrich, Saint-Quentin Fallavier, France), sections were mounted in PBS/Glycerol (1/1) and observed by fluorescence photomicroscopy (FXA, Microphot, Nikon, Melville, USA). […] ED1 positive cells and polymorphonuclear cells, identified by the shape of their nuclei stained with DAPI, were quantified on histological sections. […] Results were expressed as mean ± standard error of the mean (SEM).
compound,measurement,setting,value
CC(C)C[C@@H](NC(=O)[C@@H](Cc1ccccc1)NC(=O)[C@H]1CCCN1C(=O)[C@@H](CCC(N)=O)NC(=O)[C@H](NC(=O)[C@H]1CCCN1C(=O)[C@@H](CCCNC(=N)N)NC(=O)[C@@H](CO)NC(=O)[C@@H](CCC(N)=O)NC(=O)[C@H](N)CC(=O)O)C(C)C)C(=O)N[C@H](CC(N)=O)C(=O)N[C@H](CC(C)C)C(=O)N[C@@H](C(=O)N[C@@H](C(=O)N1CCC[C@@H]1C(=O)N[C@H](CCCNC(=N)N)C(=O)N[C@H](CCCCN)C(=O)N1CCC[C@@H]1C(=O)N[C@H](CCCNC(=N)N)C(=O)N1CCC[C@@H]1C(=O)N1CCC[C@@H]1C(=O)N[C@H](CCCNC(=N)N)C(=O)N[C@H](CCCNC(=N)N)C(=O)N[C@H](CCCNC(=N)N)C(=O)N[C@H](CCC(N)=O)C(=O)N[C@H](CCCNC(=N)N)C(=O)N[C@H](CCCNC(=N)N)C(=O)N[C@H](CCCCN)C(=O)N[C@H](CCCCN)C(=O)N[C@H](CCCNC(=N)N)C(=O)NCC(=O)O)[C@H](C)O)[C@H](C)O [SEQ ID NO: 11],effect on p-Erk1/2 signal in the iris epithelium,[1]; iris epithelium,no effect
same,effect on p-Erk1/2 in retinal Müller glial (RMG) cells,"[1]; neuroretina, administered by either route (IV or IVT)",no effect
same,number of iNOS positive cells,iNOS positive cells,reduced
